From US8916552B2, “Pharmaceutical combinations” (Astex Therapeutics Limited, priority 2006, dated 2014)
Where a name gives a salt, the structure may show the parent alone. Read-outs that look alike come from different tables or passages of the source.

Assays:
[1] = mice; doses 10 times more than were needed for antitumour activity; cited from earlier work
[2] = system: Acute Promyelocytic Leukemia (APL); conditions: cited from earlier work
[3] = clinical studies; cited from earlier work
[4] = molecular target: T1, Human Hsp90α N-terminal domain (Homo sapiens, UniProt P07900); assay: Isothermal titration calorimetry (ITC) binding to Hsp90; conditions: pH 7.4
T1 construct: purification of the Human Hsp90α N-terminal domain were performed according to published methods; made in house
Experimental: The ability of the compounds for use in the combinations of the invention to bind to human Hsp90 proteins was determined using isothermal titration calorimetry.
Isothermal titration calorimetry (ITC) experiments were performed with a VP-ITC titration calorimeter (Microcal Inc., Northampton, Mass., USA). […] All solutions were filtered and degassed prior to a titration being carried out. The enthalpy change resulting from each injection of ligand was obtained through integration of the calorimetric signal. Data were analysed using Origin 7.0 (Microcal Software Inc., Northampton, Mass.). Heats of dilution were estimated using the final injections of each individual titration and subtracted before data fitting. Different ITC experimental formats were employed in order to obtain compound dissociation constants (Kd's) over a wide range of affinities. […] In this type of experiment the stoichiometry parameter (N) was locked at 1 for data fitting.

[5] = type: physicochemical
Text: Samples for X-ray powder diffraction (XRPD) data collection were gently ground by marble mortar and loaded into a crystallographic capillary (from Hampton Research, Quartz or Glass Type 10, 0.4 or 0.7 mm diameter). Diffraction patterns were collected at room temperature using CuKα radiation (λ=1.5418 Å) from a Rigaku rotating anode RU3HR, Osmic blue confocal optics, ¼ c goniometer and a Rigaku HTC image plate detector. 2D Images were collected while spinning φ axis with a detector to crystal distance of 250 mm. Data collection was controlled by CrystalClear software and 2D images were converted to 1D plot (2θ vs. Intensity) by Datasqueeze (intensity averaged over the azimuthal angle 0<χ<360° for 2θ range 3-30° in 0.02° steps). In house program AstexXRP was used for manipulation and visualisation of 1D XRPD patterns.
It is nominally a tri-hydrate because there are 3 crystal water positions in the asymmetric unit, but they are not 100% occupied at room temperature and laboratory humidity. A saturated solution of form FL1 in methanol:water 9:1 was prepared at room temperature. Slow precipitation with approximately 4 volumes of acetone gave form FL2 which is stable in air.
A saturated solution of form FL1 in THF was prepared at room temperature. Slow precipitation with approximately 4 volumes of heptane gave form FL3.

[6] = Solid-state stability of crystalline L-lactate forms of compound of formula (1); type: physicochemical; conditions: lactic acid salts of compound of formula (1)
Text: The term ‘stable’ or ‘stability’ as used herein includes chemical stability and solid state (physical) stability. The term ‘chemical stability’ means that the compound can be stored in an isolated form, or in the form of a formulation in which it is provided in admixture with for example, pharmaceutically acceptable carriers, diluents or adjuvants as described herein, under normal storage conditions, with little or no chemical degradation or decomposition’ for example for a period of six months or more, more usually twelve months or more, for example eighteen months or more. ‘Solid-state stability’ means the compound can be stored in an isolated solid form, or the form of a solid formulation in which it is provided in admixture with, for example, pharmaceutically acceptable carriers, diluents or adjuvants as described herein, under normal storage conditions, with little or no solid-state transformation (e.g. hydration, dehydration, solvatisation, desolvatisation, crystallisation, recrystallisation or solid-state phase transition).

[7] = system: OVCAR-3 tumour cells; conditions: OVCAR-3 tumour cells in which PKB is amplified; concentrations of 50 and 100 microM; cited from earlier work
[8] = system: PKC; conditions: data published 2002; read-out: IC50, inhibition of PKC activity; cited from earlier work
[9] = system: PKA; conditions: data published 2002; read-out: IC50, inhibition of PKA activity; cited from earlier work
[10] = system: PKG; conditions: data published 2002; read-out: IC50, inhibition of PKG activity; cited from earlier work
[11] = Hygroscopicity and rate of solubility of salt forms of compound of formula (1); type: physicochemical
[12] = system: HCT116 cell line; assay: Anti-proliferative activity, Alamar Blue assay; type: cell-based; conditions: Homo sapiens, HCT-116, 72 h, read-out: IC50 against the HCT116 cell line
Experimental: The anti-proliferative activities of compounds for use in the combinations of the invention can be determined by measuring the ability of the compounds to inhibition of cell growth in a number of cell lines such as the human colon cancer cell line HCT116. […] The method is based on the ability of viable cells to reduce resazurin to its fluorescent product resorufin. […] The number of viable cells is determined by Alamar Blue assay as before. Cell lines can be obtained from the ECACC (European Collection of cell Cultures).

[13] = system: P-glycoprotein-overexpressing subline of leukemic cell line CCRF-CEM; conditions: P-glycoprotein-overexpressing subline of CCRF-CEM (Chou et al. 1998); cited from earlier work
[14] = antitumour agent; cited from earlier work

In the case of `CCOC(=O)c1ccc2[nH]c3c(OC)c4[nH]c5ccc(C(=O)OCC)cc5c4cc3c2c1` [SR-13668], the “adverse effects in vivo” value [1] is listed as “no adverse effects”.

In the case of `CC1=C(/C=C/C(C)=C/C=C/C(C)=C/C(=O)O)C(C)(C)CCC1` [Tretinoin, all-trans retinoic acid], the “remissions induced in APL patients” value [2] is given as 64-100%.

In the case of Perifosine [KRX-0401], the half-life [3] is given as about 100 h.

Work on `CC(C)c1cc(C(=O)N2Cc3ccc(CN4CCN(C)CC4)cc3C2)c(O)cc1O` [Example 55, (2,4-dihydroxy-5-isopropyl-phenyl)-[5-(4-methyl-piperazin-1-ylmethyl)-1,3-dihydro-isoindol-2-yl]-methanone] yielded a Kd [4] of under 0.1 µM.

With `CC(C)c1cc(C(=O)N2Cc3ccc(CN4CCN(C)CC4)cc3C2)c(O)cc1O` [FL2, (2,4-dihydroxy-5-isopropyl-phenyl)-[5-(4-methyl-piperazin-1-ylmethyl)-1,3-dihydro-isoindol-2-yl]-methanoneL-lactate] the “stability of crystal form in air” value [5] was “stable in air” and the “stability of crystalline form” value [6] was “stable”.

With `CC(C)c1cc(C(=O)N2Cc3ccc(CN4CCN(C)CC4)cc3C2)c(O)cc1O` [FL1, (2,4-dihydroxy-5-isopropyl-phenyl)-[5-(4-methyl-piperazin-1-ylmethyl)-1,3-dihydro-isoindol-2-yl]-methanoneL-lactate] the “stability of crystal form at 40° C. and 75% RH” value [5] was “stable in air and at 40 °C and 75% RH for at least one month”, the “stability of crystal form in air” value [5] was “stable in air” and the “stability of crystalline form” value [6] was “stable”.

For `O=S(=O)(NCCNCC=C(c1ccccc1)c1ccccc1)c1cccc2cnccc12` [NL-71-101], the induction of apoptosis [7] is listed as “induced apoptosis”, the IC50 [8] is listed as 104 µM and the IC50 [9] is listed as 9 µM. The IC50 [10] was 36 µM.

With `CC(C)c1cc(C(=O)N2Cc3ccc(CN4CCN(C)CC4)cc3C2)c(O)cc1O` [(2,4-dihydroxy-5-isopropyl-phenyl)-[5-(4-methyl-piperazin-1-ylmethyl)-1,3-dihydro-isoindol-2-yl]-methanone L-lactate salt] the hygroscopicity [11] was “non-hygroscopic” and the rate of solubility ([11]; compared with free base and other salts tested (hydrochloric acid, sulphuric acid)) was “better rate of solubility than the free base and other salts tested”.

Work on `CC(C)c1cc(C(=O)N2Cc3ccc(C(=O)N4CCNCC4)cc3C2)c(O)cc1O` [Example 54, (2,4-dihydroxy-5-isopropyl-phenyl)-[5-(piperazine-1-carbonyl)-1,3-dihydro-isoindol-2-yl]-methanone hydrochloride] yielded an IC50 [12] of under 1 µM.

For `C/C1=C/C[C@@H](/C(C)=C/c2csc(C)n2)OC(=O)C[C@H](O)C(C)(C)C(=O)[C@H](C)[C@@H](O)[C@@H](C)CCC1` [desoxyepothilone B], the IC50 [13] is listed as 0.017 µM.

For `CC(C)c1cc(C(=O)N2Cc3ccc(CN4CCN(C)CC4)cc3C2)c(O)cc1O` [FL3, (2,4-dihydroxy-5-isopropyl-phenyl)-[5-(4-methyl-piperazin-1-ylmethyl)-1,3-dihydro-isoindol-2-yl]-methanoneL-lactate], the “stability of crystal form in air” value ([5]; 2 days) was “transforms in air into form FL1” and the “stability of crystalline form” value [6] was “unstable”.

`CC(C)c1cc(C(=O)N2Cc3ccccc3C2)c(O)cc1O` [Example 5, (1,3-Dihydro-isoindol-2-yl)-(2,4-dihydroxy-5-isopropyl-phenyl)-methanone] showed an IC50 [12] of under 1 µM.

For `CCN[C@H]1CO[C@@H](O[C@H]2[C@H](O[C@H]3C#C/C=C\C#C[C@]4(O)CC(=O)C(NC(=O)OC)=C3/C4=C\CSSSC)O[C@H](C)[C@@H](NO[C@H]3C[C@H](O)[C@H](SC(=O)c4c(C)c(I)c(O[C@@H]5O[C@@H](C)[C@H](O)[C@@H](OC)[C@H]5O)c(OC)c4OC)[C@@H](C)O3)[C@@H]2O)C[C@@H]1OC` [Calicheamicin], the “potency relative to adriamycin” value [14] is given as “over 1,000 times”.
